Measured values as given in patent US20100098633A1, “SELECTIVE SEPRASE INHIBITORS” (Molecular Insight Pharmaceuticals, Inc., priority 2008, published 2010).

Target: T1, recombinant human seprase (rhFAP) (Homo sapiens, UniProt Q12884)
T1 sequence (Q12884 26-760 limits assumed): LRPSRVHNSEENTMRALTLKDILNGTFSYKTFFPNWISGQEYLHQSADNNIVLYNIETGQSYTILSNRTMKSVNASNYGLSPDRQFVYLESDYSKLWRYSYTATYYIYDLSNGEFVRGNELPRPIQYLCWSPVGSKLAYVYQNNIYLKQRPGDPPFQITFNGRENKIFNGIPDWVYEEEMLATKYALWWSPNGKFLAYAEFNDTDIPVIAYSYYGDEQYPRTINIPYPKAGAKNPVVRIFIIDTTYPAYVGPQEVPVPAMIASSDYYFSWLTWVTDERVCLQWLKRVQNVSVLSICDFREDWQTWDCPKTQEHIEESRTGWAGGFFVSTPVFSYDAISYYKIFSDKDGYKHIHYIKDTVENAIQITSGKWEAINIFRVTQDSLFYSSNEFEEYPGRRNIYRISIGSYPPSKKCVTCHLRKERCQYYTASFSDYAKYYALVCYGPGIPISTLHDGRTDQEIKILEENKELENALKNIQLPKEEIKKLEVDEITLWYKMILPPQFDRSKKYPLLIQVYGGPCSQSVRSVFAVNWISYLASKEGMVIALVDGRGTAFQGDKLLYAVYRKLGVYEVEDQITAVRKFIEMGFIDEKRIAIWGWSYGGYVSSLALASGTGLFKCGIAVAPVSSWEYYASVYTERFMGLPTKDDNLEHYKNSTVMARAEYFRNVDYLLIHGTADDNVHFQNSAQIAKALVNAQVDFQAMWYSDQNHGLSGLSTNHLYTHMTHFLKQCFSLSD
Experiment: Inhibition of enzymatic activity of recombinant human seprase on Z-Gly-Pro-AMC (fluorescence)
Assay type: biochemical
Details: for IC50: in vitro data against seprase, read-out: FAP (IC50 nM); for remaining activity at 0.005 µM: inhibitor 0.005 μM; for remaining activity at 0.005 µM / remaining activity at 0.05 µM / remaining activity at 0.5 µM / remaining activity at 5 µM / remaining activity at 500 µM: initial velocity normalized to control without test compound, 50 μM Z-Gly-Pro-AMC, read-out: Percent of Control; for remaining activity at 0.05 µM: inhibitor 0.05 μM; for remaining activity at 0.5 µM: inhibitor 0.5 μM; for remaining activity at 5 µM: inhibitor 5 μM; for remaining activity at 500 µM: inhibitor 500 μM
Procedure: In vitro assaying of compounds for inhibition of dipeptidyl peptidase activity of seprase and DPP-IV can be achieved following the described in Edosada C. Y. et al. J. Biolog. Chem. 2006, 281, 7437-7444.
Selected test compounds were examined for their ability to inhibit the enzymatic activity of recombinant human seprase (rhFAP) on the substrate, benzyloxycarbonyl-Gly-Pro-7-amido-4-methylcoumarin (Z-Gly-Pro-AMC). In brief, 10 μg rhFAP was added to 50 μM Z-Gly-Pro-AMC in the presence of increasing concentrations of test compound, and enzymatic activity was determined by monitoring fluorescence (Ex. 355 nm/Em. 460 nm). Compound 1051 is the known inhibitor, Cbz-Gly-boroproline. Initial velocity of the reaction was calculated and normalized to control reactions conducted in the absence of test compound.
The inhibition was measured by the half maximal inhibitory concentration (IC50) of a compound of interest. The IC50 indicates how much of a particular compound is needed to inhibit seprase by half.

Row | Molecule | IC50 [nM] | also measured
1 | O=C(NCC(=O)N1CCCC1B(O)O)c1ccccc1I (stereo not drawn) [Compound 1023, 1-(2-(2-iodobenzamido)acetyl)pyrrolidin-2-ylboronic acid] | 7 | remaining activity at 0.005 µM: 42%; remaining activity at 0.05 µM: 0%; remaining activity at 0.5 µM: 0%; remaining activity at 5 µM: 0%; remaining activity at 500 µM: 0%
2 | O=C(NCC(=O)N1CCCC1B(O)O)c1ccc(I)cc1 (stereo not drawn) [Compound 1024, 1-(2-(4-iodobenzamido)acetyl)pyrrolidin-2-ylboronic acid] | 3 | IC50 values against seprase (in words): low nanomolar range; remaining activity at 0.005 µM: 22%; remaining activity at 0.05 µM: 0%; remaining activity at 0.5 µM: 0%; remaining activity at 5 µM: 0%; remaining activity at 500 µM: 0%
3 | O=C(NCC(=O)N1CCCC1B(O)O)c1cccc(I)c1 (stereo not drawn) [Compound 1025, 1-(2-(3-iodobenzamido)acetyl)pyrrolidin-2-ylboronic acid] | 2 | remaining activity at 0.005 µM: 0%; remaining activity at 0.05 µM: 0%; remaining activity at 0.5 µM: 0%; remaining activity at 5 µM: 0%; remaining activity at 500 µM: 0%
4 | O=C(NCC(=O)N1CCCC1B(O)O)c1ccc(I)cc1Cl (stereo not drawn) [Compound 1026, 1-(2-(2-chloro-4-iodobenzamido)acetyl)pyrrolidin-2-ylboronic acid] | 3 | 
5 | O=C(NCC(=O)N1CCCC1B(O)O)c1cc(I)ccc1Cl (stereo not drawn) [Compound 1027, 1-(2-(2-chloro-5-iodobenzamido)acetyl)pyrrolidin-2-ylboronic acid] | 5 | 
6 | O=C(NCC(=O)N1CCCC1B(O)O)c1cc(I)ccc1Br (stereo not drawn) [Compound 1028, 1-(2-(2-bromo-5-iodobenzamido)acetyl)pyrrolidin-2-ylboronic acid] | 5 | 
7 | O=C(NCC(=O)N1CCCC1B(O)O)c1cc(I)ccc1F (stereo not drawn) [Compound 1029, 1-(2-(2-fluoro-5-iodobenzamido)acetyl)pyrrolidin-2-ylboronic acid] | 8 | 
8 | O=C(NCC(=O)N1CCCC1B(O)O)c1ccc2cc(I)ccc2c1 (stereo not drawn) [Compound 1030, 1-(2-(6-iodo-2-naphthamido)acetyl)pyrrolidin-2-ylboronic acid] | 2 | IC50 values against seprase (in words): low nanomolar range
9 | N#Cc1ccc(I)cc1C(=O)NCC(=O)N1CCCC1B(O)O (stereo not drawn) [Compound 1031, 1-(2-(2-cyano-5-iodobenzamido)acetyl)pyrrolidin-2-ylboronic acid] | 262 | 
10 | Cc1ccc(I)cc1C(=O)NCC(=O)N1CCCC1B(O)O (stereo not drawn) [Compound 1032, 1-(2-(5-iodo-2-methylbenzamido)acetyl)pyrrolidin-2-ylboronic acid] | 11 | 
11 | O=C(NCC(=O)N1CCCC1B(O)O)c1cc(I)ccn1 (stereo not drawn) [Compound 1033, 1-(2-(4-iodopicolinamido)acetyl)pyrrolidin-2-ylboronic acid] | 500 | 
12 | O=C(NCC(=O)N1CCCC1B(O)O)Nc1ccc(I)cc1 (stereo not drawn) [Compound 1034, 1-(2-(3-(4-iodophenyl)ureido)acetyl)pyrrolidin-2-ylboronic acid] | 11 | 
13 | NC(Cc1ccc(I)cc1)C(=O)NCC(=O)N1CCCC1B(O)O (stereo not drawn) [Compound 1035, 1-(2-(2-amino-3-(4-iodophenyl)propanamido)acetyl)pyrrolidin-2-ylboronic acid] | 340 | 
14 | O=C(CN1CCN(Cc2cccc(I)c2)CC1)N1CCCC1B(O)O (stereo not drawn) [Compound 1036, 1-(2-(4-(3-iodobenzyl)piperazin-1-yl)acetyl)pyrrolidin-2-ylboronic acid] | 37 | 
15 | N#C[C@@H]1CCCN1C(=O)CNC(=O)c1ccc(I)cc1 [Compound 1039, (S)-N-(2-(2-cyanopyrrolidin-1-yl)-2-oxoethyl)-4-iodobenzamide] | 511 | 
16 | N#C[C@@H]1CCCN1C(=O)CNC(=O)c1cccc(I)c1 [Compound 1040, (S)-N-(2-(2-cyanopyrrolidin-1-yl)-2-oxoethyl)-3-iodobenzamide] | 35 | IC50 values against seprase (in words): low nanomolar range

Row | Molecule | IC50 [nM] | also measured
17 | N#C[C@@H]1CCCN1C(=O)CNC(=O)c1ccc(I)cc1Cl [Compound 1041, (S)-2-chloro-N-(2-(2-cyanopyrrolidin-1-yl)-2-oxoethyl)-4-iodobenzamide] | 692 | 
18 | N#C[C@@H]1CCCN1C(=O)CNC(=O)c1cc(I)ccc1Cl [Compound 1042, (S)-2-chloro-N-(2-(2-cyanopyrrolidin-1-yl)-2-oxoethyl)-5-iodobenzamide] | 785 | 
19 | N#C[C@@H]1CCCN1C(=O)CNC(=O)c1ccccc1I [Compound 1043, (S)—N-(2-(2-cyanopyrrolidin-1-yl)-2-oxoethyl)-2-iodobenzamide] | 115 | 
20 | N#Cc1ccc(I)cc1C(=O)NCC(=O)N1CCC[C@H]1C#N [Compound 1044, (S)-2-cyano-N-(2-(2-cyanopyrrolidin-1-yl)-2-oxoethyl)-5-iodobenzamide] | 23700 | 
21 | N#C[C@@H]1CCCN1C(=O)CNC(=O)c1cc(I)cc(C(=O)O)c1 [Compound 1045, (S)-3-(2-(2-cyanopyrrolidin-1-yl)-2-oxoethylcarbamoyl)-5-iodobenzoic acid] | 1440 | 
22 | N#C[C@H]1CCCN1C(=O)CNC(=O)c1cccc(I)c1 [Compound 1046, (R)-N-(2-(2-cyanopyrrolidin-1-yl)-2-oxoethyl)-3-iodobenzamide] | 970 | 
23 | N#C[C@@H]1CCCN1C(=O)CNC(=O)[C@@H](CC(=O)O)NC(=O)c1cccc(I)c1 [Compound 1048, (R)-4-(2-((S)-2-cyanopyrrolidin-1-yl)-2-oxoethylamino)-3-(3-iodobenzamido)-4-oxobutanoic acid] | 7410 | 
24 | N#C[C@@H]1CCCN1C(=O)CNCc1cccc(I)c1 [Compound 1049, (S)-1-(2-(3-iodobenzylamino)acetyl)pyrrolidine-2-carbonitrile] | 953 | 
25 | N#C[C@@H]1CCCN1C(=O)CN1CCN(Cc2cccc(I)c2)CC1 [Compound 1050, (S)-1-(2-(4-(3-iodobenzyl)piperazin-1-yl)acetyl)pyrrolidine-2-carbonitrile] | 1150 | 
26 | O=C(NCC(=O)N1CCCC1B(O)O)OCc1ccccc1 (stereo not drawn) [Compound 1051, Cbz-Gly-boroproline, reference compound] | 67 | remaining activity at 0.005 µM: 81%; remaining activity at 0.05 µM: 46%; remaining activity at 0.5 µM: 1%; remaining activity at 5 µM: 0%; remaining activity at 500 µM: 0%
27 | NC(Cc1ccc(I)cc1)C(=O)NCC(=O)N1CCCC1N (stereo not drawn) [Compound 1061] | 24500 | 
28 | Re(CO)3-2,2′-(2,2′-(6-(2-(2-boronopyrrolidin-1-yl)-2-oxoethylamino)-6-oxohexyl azanediyl)bis(methylene)bis(1H-imidazole-2,1-diyl))diacetic acid [Compound 1020] | 4 | 
29 | Re(CO)3-(S)-2,2′-(2,2′-(6-(2-(2-cyanopyrrolidin-1-yl)-2-oxoethylamino)-6-oxohexylazanediyl)bis(methylene)bis(1H-imidazole-2,1-diyl))diacetic acid [Compound 1022] | 236 | 
30 | Re(CO)3[1-(2-(6-(bis((1-methyl-1H-imidazol-2-yl)methyl)amino) hexanamido)acetyl)pyrrolidin-2-ylboronic acid] [Compound 1018] | 20 | 
31 | Re(CO)3[1-(2-(6-(bis(pyridin-2-ylmethyl)amino)hexanamido) acetyl)pyrrolidin-2-ylboronic acid] [Compound 1014] | 21 | 
